Target: T1, STK39 (STLK3) (Homo sapiens, UniProt Q9UEW8)
T1 construct: purchased Thermo Fisher Scientific (Life Technologies) SelectScreen
Assay: SelectScreen LanthaScreen
Assay type: binding
Conditions: read-out: % displacement
Procedure, shortened: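 NU5455 was profiled across the SelectScreen Broad panel of kinase activity and binding assays. Z'LYTE reactions such as CSF1R ran at apparent Km ATP, while the Adapta CAMK1 assay used ATP listed as 10. Values are given as percent.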

CN(C(=O)CN1CCOCC1)c1ccc2sc3c(-c4cccc5c(=O)cc(N6CC7CCC(C6)O7)oc45)cccc3c2c1 [NU5455]
inhibition at 1 µM: 16.2%

Source: PMC6934184, “Selective DNA-PKcs inhibition extends the therapeutic index of localized radiotherapy and chemotherapy” (The Journal of Clinical Investigation, 2019)
